Measurements as given in publication PMC8126888 (RSC Medicinal Chemistry, 2020).
Converted amounts (≈) assume the structure as drawn. Where two headings read alike, the source gives them in different places.

Legend:
physchem [1] = experiment: physchem
[2] = 6 h incubation in mouse plasma
[3] = versus the preceding analogue
in vitro [4] = conditions: human; for CC50 at 120 h: THP-1 cells differentiated with PMA
[5] = tested on: primary peritoneal mouse macrophages (PMM); experiment: cells; conditions: Macrophage
[6] = tested on: Leishmania infantum MHOM/MA(BE)/67/ITMAP263 intracellular amastigotes; experiment: microbe, parasite or virus in culture; conditions: Macrophage, in Mus musculus
in vitro [7] = conditions: plasma
in vitro [8] = conditions: mouse, microsomes; for microsomal CLint at 0.5 h, 0.5 µM: pH 7.4, Microsome Clint,u Mouse, Table 2, intrinsic in vitro clearance, liver microsomes; for microsomal CLint at 0.5 μM: mouse liver microsomes
[9] = tested on: Leishmania infantum (MHOM/MA/67/ITMAP-263) intracellular amastigotes in THP-1; experiment: microbe, parasite or virus in culture
physchem [10] = conditions: HPLC, Ascentis Express RP Amide column
in vitro [11] = conditions: human, microsomes; for microsomal CLint at 0.5 h, 0.5 µM: pH 7.4, Microsome Clint,u Human, Table 2, intrinsic in vitro clearance, liver microsomes; for microsomal CLint at 0.5 μM: human liver microsomes
[12] = tested on: axenic L. don. amastigotes (MHOM/SD/62/1S-CL2, LdBOB); experiment: microbe, parasite or virus in culture; conditions: Leishmania donovani, read-out: L. donovani MHOM/SD/62/1SCL2D axenic-cidal amastigotes IC50
[13] = tested on: L. donovani MHOM/SD/62/1SCL2D intracellular amastigotes; experiment: microbe, parasite or virus in culture; conditions: Leishmania donovani, read-out: L. donovani MHOM/SD/62/1SCL2D intracellular amastigotes IC50
in vitro [14] = conditions: human, HepG2 cells
in vitro [15] = conditions: human
[16] = tested on: Trypanosoma cruzi, Tulahuen CL2, beta-galactosidase strain; experiment: microbe, parasite or virus in culture
Vero = experiment: cells; conditions: Chlorocebus sabaeus, read-out: Vero IC50
in vitro [17] = conditions: human, HFF-1 cells
in vitro [18] = conditions: PAMPA
in vitro [19] = conditions: human, HepG2 cells; remark: listed apart in the source
in vitro [20] = conditions: human, HFF-1 cells; remark: listed apart in the source
[21] = tested on: L. infantum MHOM/MA/67/ITMAP263 axenic Promastigotes; experiment: microbe, parasite or virus in culture; conditions: Leishmania infantum, read-out: L. infantum MHOM/MA/67/ITMAP263 axenic Promastigotes IC50
in vitro [22] = conditions: PAMPA; remark: listed apart in the source
in vitro [23] = conditions: human, HepG2 cells; remark: listed apart in the source
[24] = read-out: PMM pIC50 (converted)
[25] = read-out: L. inf. pIC50, intracellular amastigotes in PMM (converted), geometric mean of a minimum of two experiments ± standard error
[26] = pH 7.4, elog D, HPLC measured log D, pH 7.4
[27] = PBS, pH 7.4, aqueous buffer, kinetic from dmso stock
[28] = read-out: L. Inf. pIC50 (converted)
[29] = read-out: L. infantum MHOM/MA(BE)/67/ITMAP263 intracellular amastigotes IC50
[30] = MRC5, read-out: T. cruzi Tulahuen C4 (LacZ) IC50
[31] = read-out: L. Inf. pIC50, from L. infantum intracellular amastigote IC50 (converted)
[32] = read-out: L. infantum MHOM/MA(BE)/67/ITMAP263 intracellular amastigotes IC50 (uM), intracellular amastigotes
[33] = MRC5, read-out: T. cruzi Tulahuen C4 (LacZ) IC50 (uM)

## COc1ccc(C(=O)N2CCOCC2)cc1S(=O)(=O)N(Cc1ccccc1)Cc1cnc(C(F)(F)F)nc1 [Compound 47]
Physchem [1]; aqueous medium, pH 2.0, pH 2
  solubility kinetic: 11.3 µg/mL (≈ 20.5 µM)
Physchem [1]; aqueous medium, pH 7.4, pH 7.4
  solubility kinetic: 6.2 µg/mL (≈ 11.3 µM)
[2]
  Mouse plasma stability (6 h): 42 % remaining
[3]
  improvement in the in vitro mouse clearance: 4 fold
In vitro [4]; PMA-differentiated THP-1 cells
  IC50 at 120 h: > 64.6 µM
[5]; [24]
  IC50: > 64.6 µM
[6]; [25]
  IC50: 4.47 µM
In vitro [7]; Plasma protein binding (PPB)
  fraction unbound: 0.117
In vitro [8]
  microsomal CLint at 0.5 h, 0.5 µM: 152 µL/min/mg
[9]; THP-1, 120 h, read-out: Intracellular activity pIC50 L. inf. in THP-1 (converted)
  IC50: > 64.6 µM
Physchem [10]; [26]
  chromatographic logD: 3.5
In vitro [11]
  microsomal CLint at 0.5 h, 0.5 µM: 73 µL/min/mg

## COc1ccc(C(=O)N2CCOCC2)cc1S(=O)(=O)N(Cc1ccc(F)cc1)Cc1ccc(C(F)(F)F)nc1 [Compound 46]
Physchem [1]; aqueous medium, pH 2.0, pH 2
  solubility kinetic: 3.8 µg/mL (≈ 6.7 µM)
Physchem [1]; aqueous medium, pH 7.4, pH 7.4
  solubility kinetic: 3.2 µg/mL (≈ 5.64 µM)
[2]
  Mouse plasma stability (6 h): 22 % remaining
[3]
  improvement in the in vitro mouse clearance: 4 fold
[5]; [24]
  IC50: > 64.6 µM
[6]; [25]
  IC50: 1.74 µM
In vitro [7]; Plasma protein binding (PPB)
  fraction unbound: 0.041
In vitro [8]
  microsomal CLint at 0.5 h, 0.5 µM: 534 µL/min/mg
Physchem [10]; [26]
  chromatographic logD: 3.7
In vitro [11]
  microsomal CLint at 0.5 h, 0.5 µM: 265 µL/min/mg

## CCCCCOc1cc(C)c(Cl)cc1S(=O)(=O)NCc1cccs1 [DNDI0002572712]
Physchem [1]; [27]
  solubility kinetic: 0.39 µg/mL (≈ 1.01 µM)
[12]
  IC50: 4.4 µM
In vitro [4]
  CC50 at 120 h: > 50 µM
[13]
  IC50: 12 µM
[5]; read-out: PMM IC50
  IC50: 40.3 µM
other
  KS PBS - pH 2: 0.39 ug/mL
[6]; [28]
  IC50: 0.851 µM
[6]; [29]
  IC50: 0.85 µM
In vitro [14]
  CC50: 40 µM
In vitro [8]; pH 7.4, MLM CLint
  microsomal CLint at 0.5 μM: 693 µL/min/mg
In vitro [15]
  CC50 at 3 days: 44.1 µM
[16]; [30]
  IC50: 12.2 µM
In vitro [11]; pH 7.4, HLM CLint
  microsomal CLint at 0.5 μM: 693 µL/min/mg

## COc1ccc(C2c3cccn3CCN2S(=O)(=O)c2ccc3ccccc3c2)cc1 (stereo not shown) [DNDI0003355838]
In vitro [4]
  CC50 at 120 h: > 50 µM
[13]
  IC50: > 50 µM
In vitro [14]
  CC50: > 50 µM
Vero
  IC50: > 50 µM

## COc1ccc(S(=O)(=O)N2Cc3ccccc3CC2C(=O)NCc2ccccc2)cc1 (stereo not shown) [DNDI0003338988]
In vitro [4]
  CC50 at 120 h: > 50 µM
[13]
  IC50: > 50 µM
In vitro [14]
  CC50: > 50 µM
Vero
  IC50: 29 µM

## O=S(=O)(c1ccc2nncn2c1)N(Cc1cccc(F)c1)c1ccc2c(c1)OCO2 [DNDI0003321886]
In vitro [4]
  CC50 at 120 h: > 50 µM
[13]
  IC50: > 50 µM
In vitro [14]
  CC50: > 50 µM
Vero
  IC50: 35 µM

## COc1ccc(C(=O)N2CCOCC2)cc1S(=O)(=O)N(Cc1ccccc1)Cc1cnc(C(F)(F)F)nc1 [DNDI0003425509]
Physchem [1]; [27]
  solubility kinetic: 6.22 µg/mL (≈ 11.3 µM)
In vitro [17]
  CC50: > 64 µM
In vitro [18]
  Papp: 15.2 ×10⁻⁶ cm/s
In vitro [4]
  CC50 at 120 h: > 64 µM
[5]; read-out: PMM IC50 (uM)
  IC50: > 64 µM
other
  KS PBS - pH 2 (ug/mL): 11.3 ug/mL
[6]; [31]
  IC50: 4.37 µM
[6]; [32]
  IC50: 4.35 µM
In vitro [7]; PPB (%)
  fraction unbound: 0.117
In vitro [8]; pH 7.4, MLM CLint (uL/min/mg)
  microsomal CLint at 0.5 μM: 78 µL/min/mg
In vitro [19]
  CC50: > 64 µM
[9]; THP-1, read-out: L. infantum MHOM/MA/67/ITMAP263 intracellular amastigotes THP-1 cells IC50 (uM)
  IC50: > 64 µM
In vitro [15]
  CC50 at 3 days: > 64 µM
Physchem [10]; pH 7.4, eLogD, experimental
  chromatographic logD: 3.1
[16]; [33]
  IC50: 7.07 µM
In vitro [11]; pH 7.4, HLM CLint (uL/min/mg)
  microsomal CLint at 0.5 μM: 76 µL/min/mg

## COc1ccc(C(=O)N2CCOCC2)cc1S(=O)(=O)N(Cc1ccc(F)cc1)Cc1ccc(C(F)(F)F)nc1 [DNDI0003389644]
Physchem [1]; [27]
  solubility kinetic: 3.32 µg/mL (≈ 5.85 µM)
In vitro [17]
  CC50: 36.9 µM
In vitro [18]
  Papp: 10 ×10⁻⁶ cm/s
[5]; read-out: PMM IC50 (uM)
  IC50: > 64 µM
other
  KS PBS - pH 2 (ug/mL): 3.79 ug/mL
[6]; [31]
  IC50: 1.74 µM
[6]; [32]
  IC50: 1.74 µM
In vitro [7]; PPB (%)
  fraction unbound: 0.0409
In vitro [8]; pH 7.4, MLM CLint (uL/min/mg)
  microsomal CLint at 0.5 μM: 163 µL/min/mg
In vitro [19]
  CC50: > 64 µM
In vitro [15]
  CC50 at 3 days: > 64 µM
[16]; [33]
  IC50: 3.39 µM
In vitro [11]; pH 7.4, HLM CLint (uL/min/mg)
  microsomal CLint at 0.5 μM: 190 µL/min/mg

## O=C1c2ccccc2S(=O)(=O)N(Cc2ccccc2)C1Cc1ccccc1 (stereo not shown) [DNDI0003370098]
[5]; read-out: PMM IC50
  IC50: > 64 µM
In vitro [20]
  CC50: > 64 µM
[6]; [31]
  IC50: 11.7 µM
[6]; read-out: L. infantum MHOM/MA(BE)/67/ITMAP263 intracellular amastigotes IC50, intracellular amastigotes
  IC50: 11.7 µM
[21]
  IC50: > 64 µM
In vitro [8]; pH 7.4, MLM CLint
  microsomal CLint at 0.5 μM: 1060 µL/min/mg
In vitro [15]
  CC50 at 3 days: 30.8 µM
In vitro [22]
  Papp: 4.11 ×10⁻⁶ cm/s
Physchem [10]; pH 7.4, eLogD, experimental
  chromatographic logD: 3.6
In vitro [23]
  CC50: > 64 µM
[16]; [30]
  IC50: 9.38 µM
In vitro [11]; pH 7.4, HLM CLint
  microsomal CLint at 0.5 μM: 141 µL/min/mg

## CCCCCOc1cc(C)c(C)cc1S(=O)(=O)NC1CCCC1 [DNDI0002550647]
Physchem [1]; [27]
  solubility kinetic: 0.56 µg/mL (≈ 1.65 µM)
[12]
  IC50: 12 µM
In vitro [4]
  CC50 at 120 h: > 50 µM
[13]
  IC50: 13 µM
[5]; read-out: PMM IC50
  IC50: 45.2 µM
other
  KS PBS - pH 2: 0.74 ug/mL
[6]; [28]
  IC50: 1.05 µM
[6]; [29]
  IC50: 1.05 µM
In vitro [14]
  CC50: > 50 µM
In vitro [8]; pH 7.4, MLM CLint
  microsomal CLint at 0.5 μM: 416 µL/min/mg
In vitro [15]
  CC50 at 3 days: 37 µM
[16]; [30]
  IC50: 7.86 µM
In vitro [11]; pH 7.4, HLM CLint
  microsomal CLint at 0.5 μM: 567 µL/min/mg

## COc1cc(S(=O)(=O)N(Cc2ccccc2)Cc2ccccc2)c(OC)cc1C [DNDI0002644002]
Physchem [1]; [27]
  solubility kinetic: 0.41 µg/mL (≈ 0.996 µM)
[12]
  IC50: 1.5 µM
In vitro [4]
  CC50 at 120 h: > 50 µM
[13]
  IC50: 12 µM
[5]; read-out: PMM IC50
  IC50: > 64 µM
other
  KS PBS - pH 2: 0.41 ug/mL
[6]; [28]
  IC50: 0.537 µM
[6]; [29]
  IC50: 0.54 µM
In vitro [14]
  CC50: 39 µM
In vitro [8]; pH 7.4, MLM CLint
  microsomal CLint at 0.5 μM: 1080 µL/min/mg
In vitro [15]
  CC50 at 3 days: > 64 µM
[16]; [30]
  IC50: > 64 µM
In vitro [11]; pH 7.4, HLM CLint
  microsomal CLint at 0.5 μM: 920 µL/min/mg

## COc1ccc(CN(c2ccc3c(c2)OCO3)S(=O)(=O)c2ccc3nncn3c2)cc1 [DNDI0003321888]
In vitro [4]
  CC50 at 120 h: > 50 µM
[13]
  IC50: > 50 µM
In vitro [14]
  CC50: > 50 µM
Vero
  IC50: > 50 µM
